Data from US8247211B2, “Glycopeptide antibiotics” (American Cyanamid Company, priority 2001, dated 2012).
Converted amounts (≈) assume the structure as drawn.

How the values were obtained:
Test in all cases: In vitro antibacterial evaluation: minimum inhibitory concentration (MIC), broth dilution method
Assay type in all cases: cell-based
Escherichia coli = settings: 18 hours at 35° C.
In short: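 Using Muller-Hinton II […] and an inoculum of 5×10^5 CFU/mL, antibiotic dilutions from 64 down to 0.06 μg/mL were tested following NCCLS M7-A2. The MIC is the lowest concentration inhibiting growth, including in methicillin-, penicillin- or vancomycin-resistant clinical isolates.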

Staphylococcus sp. = system: Staphylococcus sp.
In short: (§1)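 MIC read as lowest drug level preventing visible growth. Organisms at 5×10^5 CFU/mL were exposed to a 64-0.06 μg/mL dilution series in Muller-Hinton II […] following NCCLS broth dilution standard M7-A2.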

Enterococcus sp. = settings: 18 hours at 35° C.
In short: as §1

Streptococcus sp. = settings: 18 hours at 35° C.
In short: as §1

[1] = broth dilution, inoculum 5×10^5 CFU/mL

MIC Escherichia coli (ATCC 25922) (Escherichia coli; Escherichia coli (ATCC 25922)): 32 µg/mL (≈ 22.8 µM)
MIC Escherichia coli (GC 4559) (Escherichia coli; Escherichia coli (GC 4559)): 32 µg/mL (≈ 22.8 µM)
MIC Escherichia coli (GC 4560) (Escherichia coli; Escherichia coli (GC 4560)): 1 µg/mL (≈ 0.713 µM)
MIC Staphylococcus aureus (ATCC 29213) (Staphylococcus sp.; strain ATCC 29213): 0.5 µg/mL (≈ 0.356 µM)
MIC Staphylococcus aureus (GC 1131) (Staphylococcus sp.; strain GC 1131): 1 µg/mL (≈ 0.713 µM)
MIC Staphylococcus aureus (GC 3051) (Staphylococcus sp.; strain GC 3051): 0.5 µg/mL (≈ 0.356 µM)
MIC Staphylococcus aureus (GC 3053) (Staphylococcus sp.; strain GC 3053): 0.5 µg/mL (≈ 0.356 µM)
MIC Staphylococcus aureus (GC 4541) (Staphylococcus sp.; strain GC 4541): 0.5 µg/mL (≈ 0.356 µM)
MIC Staphylococcus aureus (GC 4542) (Staphylococcus sp.; strain GC 4542): 0.25 µg/mL (≈ 0.178 µM)
MIC Staphylococcus aureus-SMITH (GC 4543) (Staphylococcus sp.; strain GC 4543): 0.5 µg/mL (≈ 0.356 µM)
MIC Staphylococcus aureus (GC 4544) (Staphylococcus sp.; strain GC 4544): 0.5 µg/mL (≈ 0.356 µM)
MIC Staphylococcus aureus (GC 4545) (Staphylococcus sp.; strain GC 4545): 0.5 µg/mL (≈ 0.356 µM)
MIC Coagulase Negative Staphylococcus (GC 4547) (Staphylococcus sp.; strain GC 4547): 1 µg/mL (≈ 0.713 µM)
MIC Coagulase Negative Staphylococcus (GC 4548) (Staphylococcus sp.; strain GC 4548): >0.12 µg/mL
MIC Coagulase Negative Staphylococcus (GC 4549) (Staphylococcus sp.; strain GC 4549): 0.5 µg/mL (≈ 0.356 µM)
MIC Coagulase Negative Staphylococcus (GC 4551) (Staphylococcus sp.; strain GC 4551): 0.5 µg/mL (≈ 0.356 µM)
MIC Enterococcus avium (GC 4558) (Enterococcus sp.; Enterococcus avium (GC 4558)): 1 µg/mL (≈ 0.713 µM)
MIC Enterococcus faecalis (ATCC 29212) (Enterococcus sp.; Enterococcus faecalis (ATCC 29212)): 1 µg/mL (≈ 0.713 µM)
MIC Enterococcus faecalis (GC 2242) (Enterococcus sp.; Enterococcus faecalis (GC 2242)): 1 µg/mL (≈ 0.713 µM)
MIC Enterococcus faecalis (GC 2691) (Enterococcus sp.; Enterococcus faecalis (GC 2691)): 1 µg/mL (≈ 0.713 µM)
MIC Enterococcus faecalis (GC 3059) (Enterococcus sp.; Enterococcus faecalis (GC 3059)): 1 µg/mL (≈ 0.713 µM)
MIC Enterococcus faecalis (GC 4552) (Enterococcus sp.; Enterococcus faecalis (GC 4552)): 1 µg/mL (≈ 0.713 µM)
MIC Enterococcus faecalis (GC 4553) (Enterococcus sp.; Enterococcus faecalis (GC 4553)): 1 µg/mL (≈ 0.713 µM)
MIC Enterococcus faecalis (GC 4554) (Enterococcus sp.; Enterococcus faecalis (GC 4554)): 1 µg/mL (≈ 0.713 µM)
MIC Enterococcus faecalis (GC 6189) (Enterococcus sp.; Enterococcus faecalis (GC 6189)): 1 µg/mL (≈ 0.713 µM)
MIC Enterococcus faecium (GC 2243) (Enterococcus sp.; Enterococcus faecium (GC 2243)): 1 µg/mL (≈ 0.713 µM)
MIC Enterococcus faecium (GC 4556) (Enterococcus sp.; Enterococcus faecium (GC 4556)): 1 µg/mL (≈ 0.713 µM)
MIC Enterococcus faecium (GC 4557) (Enterococcus sp.; Enterococcus faecium (GC 4557)): 1 µg/mL (≈ 0.713 µM)
MIC Enterococcus avium (GC 4558) (Enterococcus sp.; [1]): 1 µg/mL (≈ 0.713 µM)
MIC Enterococcus faecalis (ATCC 29212) (Enterococcus sp.; [1]): 1 µg/mL (≈ 0.713 µM)
MIC Enterococcus faecalis (GC 2242) (Enterococcus sp.; [1]): 1 µg/mL (≈ 0.713 µM)
MIC Enterococcus faecalis (GC 2691) (Enterococcus sp.; [1]): 1 µg/mL (≈ 0.713 µM)
MIC Enterococcus faecalis (GC 3059) (Enterococcus sp.; [1]): 1 µg/mL (≈ 0.713 µM)
MIC Enterococcus faecalis (GC 4552) (Enterococcus sp.; [1]): 1 µg/mL (≈ 0.713 µM)
MIC Enterococcus faecalis (GC 4553) (Enterococcus sp.; [1]): 1 µg/mL (≈ 0.713 µM)
MIC Enterococcus faecalis (GC 4554) (Enterococcus sp.; [1]): 1 µg/mL (≈ 0.713 µM)
MIC Enterococcus faecalis (GC 6189) (Enterococcus sp.; [1]): 1 µg/mL (≈ 0.713 µM)
MIC Enterococcus faecium (GC 2243) (Enterococcus sp.; [1]): 1 µg/mL (≈ 0.713 µM)
MIC Enterococcus faecium (GC 4556) (Enterococcus sp.; [1]): 1 µg/mL (≈ 0.713 µM)
MIC Enterococcus faecium (GC 4557) (Enterococcus sp.; [1]): 1 µg/mL (≈ 0.713 µM)
MIC Streptococcus agalactiae (GC 4564) (Streptococcus sp.; Streptococcus agalactiae (GC 4564)): <0.12 µg/mL
MIC Streptococcus pneumoniae (ATCC 6301) (Streptococcus sp.; Streptococcus pneumoniae (ATCC 6301)): <0.12 µg/mL
MIC Streptococcus pneumoniae (GC 1894) (Streptococcus sp.; Streptococcus pneumoniae (GC 1894)): <0.12 µg/mL
MIC Streptococcus pneumoniae (GC 4565) (Streptococcus sp.; Streptococcus pneumoniae (GC 4565)): <0.12 µg/mL
MIC Streptococcus pyogenes (GC 4563) (Streptococcus sp.; Streptococcus pyogenes (GC 4563)): <0.12 µg/mL
MIC Streptococcus agalactiae (GC 4564) (Streptococcus sp.; [1]): <0.12 µg/mL
MIC Streptococcus pneumoniae (ATCC 6301) (Streptococcus sp.; [1]): <0.12 µg/mL
MIC Streptococcus pneumoniae (GC 1894) (Streptococcus sp.; [1]): <0.12 µg/mL
MIC Streptococcus pneumoniae (GC 4565) (Streptococcus sp.; [1]): <0.12 µg/mL
MIC Streptococcus pyogenes (GC 4563) (Streptococcus sp.; [1]): <0.12 µg/mL
Compound: N=C1NCC(C(O)C2NC(=O)C(Cc3ccc(OC4OC(CO)C(OC5OC6COC(CCc7ccccc7)OC6C(O)C5O)C(O)C4O)cc3)NC(=O)C(CC3CCCCC3)NC(=O)CNC(=O)C(CO)NC(=O)C(C(O)C3CNC(=N)N3C3OC(CO)C(O)C(O)C3O)NC2=O)N1 (stereo not drawn) [Example 198, Cyclo[3-cyclohexylalanyl-O-[4-O-[4,6-O-(3-phenylpropylidene)hexopyranosyl]hexopyranosyl]tyrosyl-3-(2-iminoimidazolidin-4-yl)seryl-3-(3-hexopyranosyl-2-iminoimidazolidin-4-yl)serylserylglycyl]]
MIC Staphylococcus haemolyticus (GC 4546) (Staphylococcus sp.; strain GC 4546): 0.5 µg/mL (≈ 0.356 µM)
